Data from US20160145247A1, “Aminomethyl-Biaryl Derivatives Complement Factor D inhibitors and uses thereof” (NOVARTIS AG, priority 2013, published 2016).
Several values for one entry are separate records, joined by “and”; a condition that tells them apart may be missing. Identical values can stand only once.

Molecular target: T1, factor D (Homo sapiens, UniProt P00746)
T1 construct: made in house; host or cells: E. coli
Experiment: factor D inhibition assay of Biological Example 2
Assay type: biochemical

T1 sequence (P00746 26-253): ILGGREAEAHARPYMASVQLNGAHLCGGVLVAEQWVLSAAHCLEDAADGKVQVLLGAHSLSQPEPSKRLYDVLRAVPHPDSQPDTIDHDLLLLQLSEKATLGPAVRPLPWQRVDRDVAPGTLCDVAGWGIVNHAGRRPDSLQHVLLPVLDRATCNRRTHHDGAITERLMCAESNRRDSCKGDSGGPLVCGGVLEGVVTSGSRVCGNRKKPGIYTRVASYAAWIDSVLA

Row | Structure (SMILES) | IC50
1 | NCc1cccc(-c2cccc(COc3c(Br)cccc3CC(=O)O)c2)c1 [Example 174, 2-(2-((3′-(Aminomethyl)-[1,1′-biphenyl]-3-yl)methoxy)-3-bromophenyl)acetic acid] | 111 nM
2 | NCc1ccc(F)c(-c2ccnc(COc3ccccc3CC(=O)O)c2)c1 [Example 176, 2-(2-((4-(5-(Aminomethyl)-2-fluorophenyl)pyridin-2-yl)methoxy)phenyl)acetic acid] | 5740 nM
3 | Cc1ccc(S(=O)(=O)n2ncc3c(COc4ccccc4CC(=O)O)cc(-c4cccc(CN)c4)cc32)cc1 [Example 178, 2-(2-((6-(3-(Aminomethyl)phenyl)-1-tosyl-1H-indazol-4-yl)methoxy)phenyl)acetic acid] | 2 nM
4 | NCc1cccc(-c2cc(COc3ccccc3CC(=O)O)c3cn[nH]c3c2)c1 [Example 179, 2-(2-((6-(3-(Aminomethyl)phenyl)-1H-indazol-4-yl)methoxy)phenyl)acetic acid] | 4 nM
5 | C[C@@H](N)c1cccc(-c2ccnc(COc3ccccc3CC(=O)O)c2)c1 [Example 180, (R)-2-(2-((4-(3-(1-Aminoethyl)phenyl)pyridin-2-yl)methoxy)phenyl)acetic acid] | 149 nM
6 | NCc1cccc(-c2ccnc(COc3ccccc3CC(=O)O)c2)c1F [Example 182, 2-(2-((4-(3-(Aminomethyl)-2-fluorophenyl)pyridin-2-yl)methoxy)phenyl)acetic acid] | 8 nM
7 | COC[C@@H](N)c1cccc(-c2ccnc(COc3ccccc3CC(=O)O)c2)c1 [Example 184, (S)-2-(2-((4-(3-(1-amino-2-methoxyethyl)phenyl)pyridin-2-yl)methoxy)phenyl)acetic acid] | 436 nM
8 | Cc1cc(-c2cccc([C@H](N)CO)c2)cc(COc2ccccc2CC(=O)O)n1 [Example 185, (S)-2-(2-((4-(3-(1-Amino-2-hydroxyethyl)phenyl)-6-methylpyridin-2-yl)methoxy)phenyl)acetic acid] | 24 nM
9 | Cc1ccc(S(=O)(=O)n2ncc3c(COc4ccccc4CC(=O)O)cc(-c4cccc([C@H](N)CO)c4)cc32)cc1 [Example 186, (S)-2-(2-((6-(3-(1-Amino-2-hydroxyethyl)phenyl)-1-tosyl-1H-indazol-4-yl)methoxy)phenyl)acetic acid] | 14 nM
10 | NCc1cc(F)cc(-c2cccc(COc3ccccc3CC(=O)O)c2)c1 [Example 187, 2-(2-((3′-(Aminomethyl)-5′-fluoro-[1,1′-biphenyl]-3-yl)methoxy)phenyl)acetic acid] | 174 nM
11 | N[C@H](CO)c1cccc(-c2ccc(OC(F)(F)F)c(COc3ccccc3CC(=O)O)c2)c1 [Example 188, (S)-2-(2-((3′-(1-Amino-2-hydroxyethyl)-4-(trifluoromethoxy)-[1,1′-biphenyl]-3-yl)methoxy)phenyl)acetic acid] | 17 nM
12 | N[C@H](CO)c1cc(F)cc(-c2cccc(COc3ccccc3CC(=O)O)c2)c1 [Example 190-A] | 41 nM
13 | CC[C@@H](N)c1cccc(-c2cccc(COc3ccccc3CC(=O)O)c2)c1 [Example 190-C] | 1210 nM
14 | C[C@H](O)[C@@H](N)c1cccc(-c2cccc(COc3ccccc3CC(=O)O)c2)c1 [Example 190-D] | 981 nM
15 | CCC[C@@H](N)c1cccc(-c2cccc(COc3ccccc3CC(=O)O)c2)c1 [Example 190-E] | 34 nM
16 | CC(C)[C@@H](N)c1cccc(-c2cccc(COc3ccccc3CC(=O)O)c2)c1 [Example 190-F] | 3150 nM
17 | C[C@@H](O)[C@@H](N)c1cccc(-c2cccc(COc3ccccc3CC(=O)O)c2)c1 [Example 190-G] | 122 nM
18 | N[C@H](CCO)c1cccc(-c2cccc(COc3ccccc3CC(=O)O)c2)n1 [Example 190-H] | 1120 nM
19 | N[C@H](CCO)c1cccc(-c2cccc(COc3ccccc3CC(=O)O)c2)c1F [Example 190-J] | 13 nM
20 | NCc1nc(-c2cccc(COc3ccccc3CC(=O)O)c2)cs1 [Example 190-K] | 133 nM

Row | Structure (SMILES) | IC50
21 | CC(C)(N)c1cccc(-c2cccc(COc3ccccc3CC(=O)O)c2)c1F [Example 190-L] | 3270 nM
22 | O=C(O)Cc1ccccc1OCc1cccc(-c2cccc(-c3nnn[nH]3)c2)c1 [Example 191, 2-(2-((3′-(1H-Tetrazol-5-yl)-[1,1′-biphenyl]-3-yl)methoxy)phenyl)acetic acid] | 20500 nM and 20800 nM
23 | N=C(N)c1cccc(-c2cccc(COc3ccccc3CC(=O)O)c2)c1 [Example 192-B, 2-(2-((3′-Carbamimidoyl-[1,1′-biphenyl]-3-yl)methoxy)phenyl)acetic acid] | 18 nM
24 | N[C@H](C(=O)O)c1cccc(-c2cccc(COc3ccccc3CC(=O)O)c2)c1 [Example 193, (S)-2-Amino-2-(3′-((2-(carboxymethyl)phenoxy)methyl)-[1,1′-biphenyl]-3-yl)acetic acid] | 48 nM
25 | CCC[C@@H](N)c1cccc(-c2cccc(COc3c(F)cccc3CC(=O)O)c2)c1 [Example 194, (R)-2-(2-((3′-(1-Aminobutyl)-[1,1′-biphenyl]-3-yl)methoxy)-3-fluorophenyl)acetic acid] | 263 nM
26 | CCC[C@@H](N)c1cccc(-c2cccc(COc3ccccc3CC(=O)O)c2)c1F [Example 195-B, (R)-2-(2-((3′-(1-Aminobutyl)-2′-fluoro-[1,1′-biphenyl]-3-yl)methoxy)phenyl)acetic acid] | 107 nM
27 | CCC[C@@H](N)c1cccc(-c2cccc(COc3ccccc3CC(=O)O)c2)n1 [Example 196-A] | 11300 nM
28 | CCC[C@@H](N)c1cc(-c2cccc(COc3ccccc3CC(=O)O)c2)ccn1 [Example 196-B] | 206 nM
29 | NC(c1ccccc1)c1cccc(-c2cccc(COc3ccccc3CC(=O)O)c2)c1 (stereo not shown) [Example 196-C] | 313 nM
30 | CCCC[C@@H](N)c1cccc(-c2cccc(COc3ccccc3CC(=O)O)c2)c1 [Example 196-D] | 642 nM
31 | N#CC[C@@H](N)c1cccc(-c2cccc(COc3ccccc3CC(=O)O)c2)c1 [Example 196-E] | 272 nM
32 | NC(CF)c1cccc(-c2cccc(COc3ccccc3CC(=O)O)c2)c1F (stereo not shown) [Example 196-F] | 6 nM
33 | N[C@@H](c1cccc(-c2cccc(COc3ccccc3CC(=O)O)c2)c1)C1CC1 [Example 196-G] | 1080 nM
34 | N[C@H](CC(F)(F)F)c1cccc(-c2cccc(COc3ccccc3CC(=O)O)c2)c1 [Example 196-H] | 1180 nM
35 | N[C@H](CC1CC1)c1cccc(-c2cccc(COc3ccccc3CC(=O)O)c2)c1 [Example 196-I] | 239 nM
36 | CCC[C@@H](N)c1cccc(-c2cc(COc3ccccc3CC(=O)O)cc(NCC3CC3)c2)c1 [Example 197, (R)-2-(2-((3′-(1-Aminobutyl)-5-((cyclopropylmethyl)amino)-[1,1′-biphenyl]-3-yl)methoxy)phenyl)acetic acid] | 69 nM
37 | CCC[C@@H](N)c1cccc(-c2cc(COc3ccccc3CC(=O)O)cc(N3CCOCC3)c2)c1F [Example 198-C, (R)-2-(2-((3′-(1-Aminobutyl)-2′-fluoro-5-morpholino-[1,1′-biphenyl]-3-yl)methoxy)phenyl)acetic acid] | 199 nM
38 | CCC[C@@H](N)c1cccc(-c2cc(COc3ccccc3CC(=O)O)cc(N3CCCC3)c2)c1F [Example 199-A] | 148 nM
39 | CCC[C@@H](N)c1cccc(-c2cc(COc3ccccc3CC(=O)O)cc(NCC3CC3)c2)c1F [Example 199-B] | 69 nM
40 | CCC[C@@H](N)c1cccc(-c2cc(COc3ccccc3CC(=O)O)cc(NC[C@@H]3CCCO3)c2)c1F [Example 199-C] | 65 nM
